The results in this text go back to patent US11591323B2, “Muscarinic agonists as non-steroidal and non-opioid analgesics and methods of use thereof” (Barry University, priority 2019, dated 2023).

Experiment [1] has as its target T1, M5 muscarinic receptor (Homo sapiens, UniProt P08912).
T1 sequence (P08912 1-532): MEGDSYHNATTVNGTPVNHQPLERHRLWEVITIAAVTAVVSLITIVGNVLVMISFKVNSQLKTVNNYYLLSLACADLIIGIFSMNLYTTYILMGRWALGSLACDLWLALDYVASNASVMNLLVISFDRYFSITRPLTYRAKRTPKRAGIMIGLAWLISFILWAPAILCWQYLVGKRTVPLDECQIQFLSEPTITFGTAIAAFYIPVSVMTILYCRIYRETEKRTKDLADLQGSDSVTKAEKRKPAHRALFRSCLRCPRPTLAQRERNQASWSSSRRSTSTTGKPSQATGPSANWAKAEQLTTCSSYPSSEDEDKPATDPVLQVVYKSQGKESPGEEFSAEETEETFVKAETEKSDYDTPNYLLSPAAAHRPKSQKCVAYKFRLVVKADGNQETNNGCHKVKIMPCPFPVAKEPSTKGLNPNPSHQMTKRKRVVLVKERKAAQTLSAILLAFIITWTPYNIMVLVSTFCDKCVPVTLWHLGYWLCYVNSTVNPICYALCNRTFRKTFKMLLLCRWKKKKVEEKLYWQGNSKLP
The experiment is described as follows: accumulation of IPX, M5 CHO cells transfected with G15 (M5Gq+G15). It is filed as cell-based. Also on record: expressed in transfected cells; host or cells: CHO cells. The following applies: for EC50 / E′MAX / τ: Table 8; for Kd: Table 8, read-out: pKA (converted); for RAi: Table 8, relative to carbachol; for Δlog(τ/KA): Table 8, to carbachol. Here is the method:
(§1) To determine level of cAMP, cells in suspension were pre-incubated for 1 h with 0.4 μM [^3H]adenine, washed, and incubated for 10 min in the presence of isobutylmethylxanthine and 10 μM forskolin. […] Incubation was ended by addition of 0.2 ml of 2.5 M HCl to the samples. Samples were applied to alumina columns (1.5 g of alumina per column), washed with 2 ml ammonium acetate (pH=7.0) and eluted from columns with 4 ml ammonium acetate and measured by liquid scintillation spectrometry. […] The incubation was stopped by addition of 0.5 ml of chloroform methanol HCl mixture (2:1:0.1). After separation of water and organic phases, 0.6 ml of water phase was applied to Dowex columns (1.5 g of Dowex per column), washed by 20 ml of 60 mM ammonium formate/5 mM sodium borate buffer and eluted from columns with 4 ml of 1M ammonium formate/0.1 formic acid buffer and measured by liquid scintillation spectrometry.
(§2) Measurements of the production of cAMP and inositol phosphates: Levels of second messengers cAMP and inositol phosphates were determined in radiochemical chromatography assays as described previously. To determine level of cAMP, cells in suspension were pre-incubated for 1 h with 0.4 μM [^3H]adenine, washed, and incubated for 10 min in the presence of isobutylmethylxanthine and 10 μM forskolin. […] Incubation was ended by addition of 0.2 ml of 2.5 M HCl to the samples. Samples were applied to alumina columns (1.5 g of alumina per column), washed with 2 ml ammonium acetate (pH=7.0) and eluted from columns with 4 ml ammonium acetate and measured by liquid scintillation spectrometry. […] For this purpose, new CHO cell lines stably expressing promiscuous G15 G-protein and M2 or M4 receptor were generated by transfection with pCMV/hygro vector and hygromycin selection. To determine the rate of formation of inositol phosphates IPX, suspended cells were pre-incubated with 0.1 μM [^3H]myo-inositol for 60 min, washed, and incubated with 10 mM LiCl for 15 min. […] The incubation was stopped by addition of 0.5 ml of chloroform methanol HCl mixture (2:1:0.1). After separation of water and organic phases, 0.6 ml of water phase was applied to Dowex columns (1.5 g of Dowex per column), washed by 20 ml of 60 mM ammonium formate/5 mM sodium borate buffer and eluted from columns with 4 ml of 1M ammonium formate/0.1 formic acid buffer and measured by liquid scintillation spectrometry.
(§3) For bi-phasic response, curves were inhibitory and stimulatory phase were fitted separately. Operational Model of Functional Agonism
(§4) [formula] where y is functional response at concentration of tested compound x, EMAX is maximal response of the system, KA is equilibrium dissociation constant and nH is slope factor. Eq. 5 was fitted to data from functional experiments. Eq. 5 was fitted to data by the two-step procedure described earlier. […] In the second step, Eq. 5 with EMAX fixed to the value determined in the first step was fitted to individual experimental data sets. Relative Intrinsic Activity

The target of experiment [2] is T1, M5 muscarinic receptor. The experiment is described as follows: stimulation of cAMP, M5 CHO cells (M5Gs). It is filed as cell-based. The arrangement: host or cells: CHO cells, stably transfected. The following applies: for RAi / E′MAX / τ / Δlog(τ/KA): M5Gs (↑cAMP); for RAi: Table 8, relative to carbachol; for E′MAX / τ: Table 8; for Δlog(τ/KA): Table 8, to carbachol. Here is the method: as §1, §2, §3, §4
Muscarinic receptors are also able to stimulate non-preferential signalling pathways.

Molecules are shown by their SMILES. Entries after “also recorded” stand apart in the source; their conditions may differ.

The term EC50 denotes the concentration that produces a half-maximal response. For `C1=CCN(Cc2cccs2)CC1.Cl` [Compound 6A, 1-[(thiophen-2-yl)methyl]-1,2,3,6-tetrahydropyridin-1-ium chloride], on M5 muscarinic receptor [1], the response was half-maximal at 1580 nM (EC50), the “E′MAX” value worked out at 1.19 ± 0.04 fold over basal, the τ is on record as 0.009 ± 0.003 and the Kd is 1580 nM. In addition, at M5 muscarinic receptor [1], the RAi worked out at 0.0025 ± 0.0008 and the “Δlog(τ/KA)” value is given as 2.60 ± 0.82. Further, the RAi at M5 muscarinic receptor [2] was determined as 0.

Turning to `C[N+]1(Cc2cccs2)CC=CCC1.[I-]` (stereo not shown) [Compound 7A, 1-methyl-1-[(thiophen-2-yl)methyl]-1,2,3,6-tetrahydropyridin-1-ium iodide], at M5 muscarinic receptor [1], the midpoint of the response, the EC50, lay at 7940 nM; the “E′MAX” value was 1.28 ± 0.05 fold over basal; the τ was 0.014 ± 0.003; the Kd is 2000 nM. Besides, at M5 muscarinic receptor [1], the RAi is reported as 0.0007 ± 0.0002 and the “Δlog(τ/KA)” value amounted to 3.17 ± 0.88. The same compound yielded an RAi on M5 muscarinic receptor [2] of 0.

With `C[N+](C)(C)CCOC(N)=O` [carbachol, reference compound], at M5 muscarinic receptor [1], the “E′MAX” value was 17 ± 2 fold over basal, the τ amounted to 4.0 ± 0.4 and the “Δlog(τ/KA)” value worked out at 0. The “increase of cAMP level” value at M5 muscarinic receptor [2] (M5, micromolar concentrations, in words) is recorded as “at micromolar concentrations it stimulated cAMP production; also recorded: increased cAMP level at micromolar concentrations”. Further, on M5 muscarinic receptor [2], the “E′MAX” value stood at 1.23 ± 0.03 fold increase, the τ stood at 0.10 ± 0.02 and the “Δlog(τ/KA)” value was 0.

Regarding `O=C1CCCN1CC#CCN1CCCC1` [oxotremorine, reference compound], on M5 muscarinic receptor [1], the “E′MAX” value is 16 ± 1 fold over basal, the τ is on record as 2.6 ± 0.3, the RAi turned out to be 4.12 ± 0.26 and the “Δlog(τ/KA)” value is given as −0.62 ± 0.07. Moreover, on M5 muscarinic receptor [2], the EC50 is 3800 nM, the Kd was 3980 nM, the “E′MAX” value turned out to be 1.22 ± 0.03 fold increase and the τ is recorded as 0.09 ± 0.02. On M5 muscarinic receptor [2], the RAi turned out to be 6.62 ± 0.58 and the “Δlog(τ/KA)” value is −0.82 ± 0.08.
